These results are taken from article PMC10514136, “Peptide-conjugated antimiRs improve myotonic dystrophy type 1 phenotypes by promoting endogenous MBNL1 expression” (Molecular Therapy. Nucleic Acids, 2023).

The subject of this test is HSALR mice. Kind of test: Histology, percentage of muscle fibers with central nuclei. The format is in vivo, mouse. The following applies: 9.2 mg/kg (mean) i.v. every 2 weeks x3, day 45. The text has this:
Mouse handling and experimental procedures followed the European law regarding laboratory animal care and experimentation (2003/65/C.E.) and were approved by Conselleria de Agricultura, Generalitat Valenciana (reference no. A1539961490857). We used homozygous transgenic HSA^LR (line 20 b) mice,[90] which were kindly provided by Dr Thornton (Rochester, NY) and were housed and bred in our animal facility. Experimental groups were FVB as healthy control and HSA^LR treated with a scrambled ON (SC) and PBS as negative controls, and HSA^LR mice treated with all six experimental CPP-PMOs. The mice were randomly allocated to the different treatments as follows: in each cage, each mouse was ear-marked as it was taken out, and each mouse was then assigned to a different treatment. […]
Frozen 15-μm sections of mouse gastrocnemius and quadriceps muscles were stained with hematoxylin and eosin and mounted with DPX Mountant for histology (Sigma) according to standard procedures. […] The percentage of fibers containing central nuclei was quantified in a total of 200 fibers in each mouse.

Regarding “TCTTACCTCAGTTACAATTTA-Pip9b2 [Scramble, reference compound]”, the “muscle fibers with central nuclei vs PBS-injected mice” value was “did not differ significantly from PBS-injected ones”.
